Measurements as given in patent EP4772510A2, “BENZAZEPINONE COMPOUND AND USE THEREOF” (HANGZHOU BIO-SINCERITY PHARMA-TECHCO., LTD., priority 2023, dated 2025).

Test system: HT-29 cells
Experiment: Inhibition of TNF-α-induced necroptosis of HT-29 cells (SRB method)
Format: cell-based, human
Settings: Homo sapiens, HT-29, TNF-α 20 ng/mL + BV6 2 µM + Z-VAD-FMK 20 µM, 18 h
Outline: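 HT-29 cells (3 × 10^4/well, 24 h) were treated 18 h with compound (8 three-fold dilutions, 1000.00-0.46 nM, duplicate) plus TNF-α 20 ng/mL, BV6 2 µM and Z-VAD-FMK 20 µM final, at 37 °C. Viability was read by SRB absorbance; EC50 values were fitted.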

With `CN1C(=O)[C@@H](NC(=O)c2nnc(Cc3ccccc3)[nH]2)COc2ccccc21` [GSK2982772, (S)-5-benzyl-N-(5-methyl-4-oxo-2,3,4,5-tetrahydrobenzo[b][1,4]oxazepin-3-yl)-4H-1,2,4-triazole-3-carboxamide, reference compound] as the compound, how does the EC50 read?
The EC50 was 5 to 10 nM.

How did the EC50 turn out when `Cn1cc(C#Cc2cc3c4c(c2)CCN4C(=O)C(NC(=O)c2ncn(Cc4c(F)cccc4F)n2)CC3)cn1` (stereo not drawn) [III-1, 1-(2,6-difluorobenzyl)-N-(9-((1-methyl-1H-pyrazol-4-yl)ethynyl)-4-oxo-1,2,3,4,6,7-hexahydroazepino[3,2,1-hi]indol-3-yl)-1H-1,2,4-triazole-3-carboxamide] was run?
Its EC50 is less than 5 nM.

With `Cn1cc(C#Cc2cc3c4c(c2)CCN4C(=O)C(NC(=O)c2ncn(Cc4cc(F)ccc4F)n2)CC3)cn1` (stereo not drawn) [III-10, 1-(2,5-difluorobenzyl)-N-(9-((1-methyl-1H-pyrazol-4-yl)ethynyl)-4-oxo-1,2,3,4,6,7-hexahydroazepino[3,2,1-hi]indol-3-yl)-1H-1,2,4-triazole-3-carboxamide] as the compound, how does the EC50 read?
Its EC50 is less than 5 nM.

`Cn1cc(C#Cc2cc3c4c(c2)CCN4C(=O)C(NC(=O)c2ncn(Cc4ccc(F)c(F)c4)n2)CC3)cn1` (stereo not drawn) [III-12, 1-(3,4-difluorobenzyl)-N-(9-((1-methyl-1H-pyrazol-4-yl)ethynyl)-4-oxo-1,2,3,4,6,7-hexahydroazepino[3,2,1-hi]indol-3-yl)-1H-1,2,4-triazole-3-carboxamide] was tested. Which EC50 did it give?
Its EC50 is 10 to 100 nM.

For `O=C(NC1CCc2cc(C#Cc3cnn(C(F)F)c3)cc3c2N(CC3)C1=O)c1ncn(Cc2cc(F)ccc2F)n1` (stereo not drawn) [III-19, 1-(2,5-difluorobenzyl)-N-(9-((1-(difluoromethyl)-1H-pyrazol-4-yl)ethynyl)-4-oxo-1,2,3,4,6,7-hexahydroazepino[3,2,1-hi]indol-3-yl)-1H-1,2,4-triazole-3-carboxamide], which EC50 is on record?
Its EC50 is less than 5 nM.

Which EC50 does the source give for `O=C(NC1CCc2cc(C#Cc3cnn(C(F)F)c3)cc3c2N(CC3)C1=O)c1ncn(Cc2ccccc2F)n1` (stereo not drawn) [III-21, N-(9-((1-(difluoromethyl)-1H-pyrazol-4-yl)ethynyl)-4-oxo-1,2,3,4,6,7-hexahydroazepino[3,2,1-hi]indol-3-yl)-1-(2-fluorobenzyl)-1H-1,2,4-triazole-3-carboxamide] here?
The EC50 was less than 5 nM.

With `C#Cc1cc2c3c(c1)CCN3C(=O)C(NC(=O)c1ncn(Cc3c(F)cccc3F)n1)CC2` (stereo not drawn) [III-26, 1-(2,6-difluorobenzyl)-N-(9-ethynyl-4-oxo-1,2,3,4,6,7-hexahydroazepino[3,2,1-hi]indol-3-yl)-1H-1,2,4-triazole-3-carboxamide] as the compound, how does the EC50 read?
The EC50 was less than 5 nM.

Same assay, conditions: TNF-α 20 ng/mL + BV6 2 µM + Z-VAD-FMK 20 µM, 18 h

How did the EC50 turn out when `O=C(NC1CCc2cc(C#Cc3cnn(C(F)F)c3)cc3c2N(CC3)C1=O)c1ncn(Cc2c(F)cccc2F)n1` (stereo not drawn) [III-17, 1-(2,6-difluorobenzyl)-N-(9-((1-(difluoromethyl)-1H-pyrazol-4-yl)ethynyl)-4-oxo-1,2,3,4,6,7-hexahydroazepino[3,2,1-hi]indol-3-yl)-1H-1,2,4-triazole-3-carboxamide] was run?
Its EC50 is less than 5 nM.

How did the EC50 turn out when “N-(9-((1-(difluoromethyl)-1H-pyrazol-4-yl)ethynyl)-4-oxo-1,2,3,4,6,7-hexahydroazepino[3,2,1-hi]indol-3-yl)-1-(4-methylbenzyl)-1H-1,2,4-triazole-3-carboxamide [III-25]” was run?
The EC50 was 5 to 10 nM.
